From patent US20180092840A1, “ULTRASOUND-ENHANCED DRUG DELIVERY FOR TREATMENT OF ONYCHOMYCOSIS” (The George Washington University, priority 2016, published 2018)

Columns and labels:
[1] = system: onychomycosis; conditions: cited from earlier work; for side effects: onychomycosis treatment
[2] = diffusion cell test (Franz Diffusion Cell, spectrophotometry) of blue dye through nail with ultrasound; assay type: in vitro ADME, pig; conditions: 5 min sonication, 60 min total, n=6
Protocol: A second set of experiments was conducted utilizing a diffusion cell system 500, as set forth in FIG. 5 (hereinafter, the “diffusion cell test”). As described more fully below, a diffusion cell 502 having a receiving compartment 504 containing a stir bar 506 were positioned at the bottom of the system 500. A sampling port 508 projected from a side of the receiving compartment 504 to collect liquids contained therein. A nail adapter 510 fitted with a nail 512 was positioned above the diffusion cell 502. A lid adapter 514 was positioned above the nail 512. The lid adapter 514 contained a donor compartment 516, which held the blue dye, as well as a thermocouple 518 and a transducer 520. The parameters of the diffusion cell test were the same as set forth above with respect to Example 1, except in this example, spectrophotometry and a Franz Diffusion Cell were used to measure how much of the blue dye compound permeated all the way through the nail from a donor compartment (filled with the dye) to a receiver compartment, using dilution at different ultrasound parameters.
The diffusion cell (commercially available from PermeGear, Inc., Hellertown, Pa., USA) was fit with a custom-made nail adapter to avoid leakage of dye around the nail and a lid adapter so that 50 mL of dye and the transducer could easily fit above the nail adapter, as illustrated in FIG. 5. The nail adapter was made from plastic that screws together tightly and secures to the diffusion cell using small metal clamps. The lid adapter was made from a plastic beaker and secured onto the top of the nail adapter using epoxy. During the experimentation, the receiver compartment of the diffusion cell was filled with saline solution and a magnetic stirring bar which was spun at 450 RPM to ensure the compartment was fully mixed. The entire diffusion cell was placed in a water bath at 37° C. The donor compartment was then filled with 50 mL of the previously-described blue dye. Before being placed in the donor compartment, the blue dye was maintained at room temperature for at least 20 minutes. The transducer was placed 85 mm from the nail (as opposed to 45 mm from the nail in the luminosity experiment). The nail was then sonicated for five (5) minutes.
After sonication, the diffusion cell experiment continued for another 55 minutes to allow the dye to travel through the entirety of the nail. The Control nails were not treated with any ultrasound and were exposed to the dye solution for 60 minutes. […]
After the completion of the experiment, 2 mL of solution was collected from the receiving compartment of the diffusion cell and its absorption was measured with the spectrophotometer (commercially available as UVmini-1240 from Shimadzu Scientific Instruments of Columbia, Md., USA) using saline as a base. […]

Q: With `C=C1CCN([C@H](C)[C@](O)(Cn2cncn2)c2ccc(F)cc2F)CC1` [Efinaconazole] as the molecule, how does the “cure rate compared with Ciclopirox” value ([1]; topical, applied for up to ten (10) months) read?
A: slightly better cure rate

Q: What does the source list for `CN(C/C=C/C#CC(C)(C)C)Cc1cccc2ccccc12` [Terbinafine]?
A: side effects [1]: elevated levels of liver enzymes and hepatitis; overall failure rate ([1]; orally prescribed): greater than 30%; time to work ([1]; orally prescribed): > 6 months

Q: Which results are given for `CCN(Cc1cccc(S(=O)(=O)[O-])c1)c1ccc(C(=C2C=CC(=[N+](CC)Cc3cccc(S(=O)(=O)[O-])c3)C=C2)c2ccccc2S(=O)(=O)[O-])cc1.[Na+].[Na+]` [blue dye, FD&C Blue No. 1—Brilliant Blue FCF, E133]?
A: increase in nail permeability vs Control ([2]; 1 MHz): 70.3%; increase in nail permeability vs Control ([2]; 400 kHz): 26.7%; increase in nail permeability vs Control ([2]; 600 kHz): 19.5%; increase in nail permeability vs Control ([2]; 800 kHz): 44.5%

Q: Which cure rate ([1]; nail polish form, after six (6) months of daily application) does the source give for `Cc1cc(C2CCCCC2)n(O)c(=O)c1` [ciclopirox] here?
A: 36%

Q: What about the side effects [1] of the same molecule?
A: only non-serious, infrequently reported side effects
